Tested on: transplanted tumor of human glioblastoma cell A172
Settings: 50 mg/kg
Procedure: Then cell concentration was adjusted to 1×10^7/ml with matrigel, then each nude mouse was inoculated subcutaneously with 0.2 ml of cells at its right armpit and recorded as the first day of inoculation. When the tumor grows to be greater than or equal to 100 mm^3, the mice were randomly divided into 11 groups with 6 mice in each group: a model group, a temozolomide group, […], […], […] Each group was continuously administered intragastrically for 30 days with a dose of 20 ml/kg. The mice were sacrificed the next day after drug withdrawal and the indicators were tested. The long diameter and short diameter of the tumor, and the body weight of each mouse were recorded every 3 days from drug administration to nude mouse sacrifice.
The body weight of the nude mice and the long diameter (a) and short diameter (b) of the transplanted tumor were measured every 3 days, and the tumor volume (v), relative tumor volume (RTV) and relative tumor proliferation rate (T/C) are calculated respectively according to the following formulas, wherein V=a×b^2/2; RTV=V/V0 (V0 is the tumor volume before administration, V is the tumor volume before sacrifice), and T/C (%)=treatment group RTV/model control group RTV×100%.
Each mouse was weighed and sacrificed. After the tumor was completely stripped off from the body of the mouse, the non-tumor tissues such as blood stains and fat were removed to weigh the tumor and calculate the tumor growth inhibition rate. The average tumor weight of each group of mice is used as an indicator of efficacy. Tumor growth inhibition rate (%)=(1−the average tumor weight of the treatment group/the average tumor weight of the model group)×100%.

## Cn1nnc2c(C(N)=O)ncn2c1=O [temozolomide, reference compound]
A172 nude mice
  Inhibition Rate (%): 68.89%
  Relative Tumor Proliferation Rate (T/C): 61.35%
  Relative Tumor Volume (RTV): 4.12 ± 2.03
  Tumor Weight: 0.43 ± 0.06 g
A172 nude mice, d1
  Tumor Volume (mm3) (d 1): 116.6 ± 10.91 mm3
A172 nude mice, d30
  Tumor Volume (mm3) (d30): 482.11 ± 89.74 mm3
mouse, in vivo
  Body Weight (g) (d1): 21.07 ± 0.57 g
  Body Weight (g) (d30): 19.83 ± 1.24 g

Source: patent US20200163984A1, “USE OF ISOVALERYL SPIRAMYCIN I, II AND/OR III IN MANUFACTURING MEDICAMENT FOR TREATING AND/OR PREVENTING TUMOR, AND MEDICAMENT” (SHENYANG FUYANG PHARMACEUTICAL TECHNOLOGY CO., LTD., priority 2017, published 2020)
